The results in this text go back to PubChem BioAssay (NCI).

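All cell lines were grown in 96-well plates and treated with compound for 48 hours. Here, GI50 denotes the concentration required for 50% inhibition of growth. TGI: total growth inhibition.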

Broadly, the TGI is the concentration at which net growth stops. One may read the GI50 as the concentration at which growth is held to half of that of the control.

Test systems include MDA-MB-435; A549 NSCLC; OVCAR-8 ovarian; SK-MEL-28 melanoma; SK-OV-3 ovarian; MCF7 breast; OVCAR-3 ovarian; SNB-19 CNS; A498 renal; HCC-2998 colon.
What all share (assay): DTP human tumour cell line panel, 48 h

Regarding `O=c1c(-c2ccccc2)c(SCCO)n(-c2ccccc2)c(=S)n1-c1ccccc1`, the TGI in the test on MDA-MB-435, in the test on A549 NSCLC, with OVCAR-8 ovarian, in the test with SK-MEL-28 melanoma, in the test on SK-OV-3 ovarian and with MCF7 breast was > 100 µM in each case. For the same molecule, the TGI with OVCAR-3 ovarian and in the test with SNB-19 CNS was > 100 µM in each case.

With `COc1ccc(/C(Cl)=C/c2cc(OC)ccc2OC)cc1`, the TGI with A498 renal, with A549 NSCLC, in the test with OVCAR-8 ovarian, in the test on SK-MEL-28 melanoma, in the test with SK-OV-3 ovarian and in the test with SNB-19 CNS was > 100 µM in each case. The TGI with HCC-2998 colon was > 100 µM.

Turning to `O=C(CCN1CCN2c3ccccc3CCC2C1)c1ccc(F)cc1` (stereo unspecified), the concentration for total growth inhibition (TGI) in the test on MDA-MB-435 was 47.4 µM; in the test on A498 renal it was > 100 µM; in the test with A549 NSCLC, > 100 µM; with OVCAR-8 ovarian it was > 100 µM; in the test on SK-MEL-28 melanoma, 32.2 µM; in the test with SK-OV-3 ovarian, > 100 µM. Further, the figures for the TGI in the test on MCF7 breast, in the test with OVCAR-3 ovarian and in the test on SNB-19 CNS were 51.3 µM, 71.4 µM and 47.5 µM, respectively.

As for `C/C(=N\Nc1nc2cc(C(F)(F)F)ccc2s1)c1ccccn1`, the TGI in the test on MDA-MB-435 came out at 7.62 µM; in the test with A498 renal, 7.61 µM; with OVCAR-8 ovarian, 1.93 µM; with SK-MEL-28 melanoma, 5.74 µM; in the test on SK-OV-3 ovarian it was 11.3 µM; in the test on OVCAR-3 ovarian, 8.85 µM. In addition, the TGI in the test with SNB-19 CNS was determined as 13.3 µM; with HCC-2998 colon, 18.3 µM.

As to `COc1cc(C2C(Cl)C(=O)N2c2c(C)n(C)n(-c3ccccc3)c2=O)ccc1O` (stereo unspecified), the TGI in the test with MDA-MB-435 was 31.8 µM; with A549 NSCLC, 61.9 µM; in the test with OVCAR-8 ovarian, 43.9 µM; in the test on SK-OV-3 ovarian, 80.2 µM; in the test on MCF7 breast, 48.7 µM; in the test with OVCAR-3 ovarian, > 100 µM.

For `CCOP(=O)(O)CN1CCNCCN(CP(=O)(O)OCC)CCNCC1`, the TGI in the test on MDA-MB-435, in the test with A498 renal, with A549 NSCLC, in the test on OVCAR-8 ovarian, in the test on SK-MEL-28 melanoma and with SK-OV-3 ovarian was > 100 µM each time. Besides, the TGI with MCF7 breast, in the test on OVCAR-3 ovarian and in the test with SNB-19 CNS was > 100 µM in each case.

On to `CC1=NN(C(=O)c2ccc(Cl)cc2)C(=O)/C1=C/c1ccccc1O`, for which the TGI in the test with A498 renal, with A549 NSCLC, with OVCAR-8 ovarian, in the test with SK-MEL-28 melanoma, in the test on SK-OV-3 ovarian and in the test on OVCAR-3 ovarian was > 100 µM throughout. The TGI in the test on SNB-19 CNS and in the test with HCC-2998 colon was > 100 µM in each case.

In the case of `Cc1cc(C)c2c(c1)C(=O)/C(=C/c1ccccc1C(=O)O)C2`, the TGI in the test with A498 renal, in the test on A549 NSCLC, in the test on OVCAR-8 ovarian, with SK-MEL-28 melanoma, in the test with MCF7 breast and in the test with OVCAR-3 ovarian was > 100 µM each time. In addition, the TGI in the test with SNB-19 CNS and with HCC-2998 colon was > 100 µM each time.

As to `C=C(C)CC1(O[Si](C)(C)C)C(=O)C(OCC)=C1OCC` (stereo unspecified), the TGI with MDA-MB-435, in the test on A498 renal, in the test with A549 NSCLC, in the test with OVCAR-8 ovarian, with SK-MEL-28 melanoma and in the test on SK-OV-3 ovarian was > 100 µM throughout. Further, the TGI in the test with MCF7 breast, with OVCAR-3 ovarian and in the test on SNB-19 CNS was > 100 µM throughout.

Take `COc1ccc(OC)c(SC(CC(=O)c2ccccc2)c2ccccc2)c1` (stereo unspecified): the TGI in the test with MDA-MB-435 came to 26.7 µM; in the test on A549 NSCLC, 91.7 µM; in the test on OVCAR-8 ovarian, 28.7 µM; in the test with SK-MEL-28 melanoma, 32.6 µM; with SK-OV-3 ovarian it was 40.3 µM; in the test with MCF7 breast it was 13.7 µM. In addition, the TGI in the test with OVCAR-3 ovarian is 16.4 µM; in the test with SNB-19 CNS, 27.8 µM; in the test with HCC-2998 colon, 31.6 µM.

As for `C/C(=N\Nc1nc2ccccc2n1C)c1cc2ccccc2cn1`, the TGI was 9.89 µM with MDA-MB-435; 1.47 µM in the test with A498 renal; 27.1 µM in the test with A549 NSCLC; 4.24 µM with OVCAR-8 ovarian; 16.6 µM with SK-MEL-28 melanoma; 0.761 µM in the test with SK-OV-3 ovarian. Also, the TGI worked out at 14.6 µM with SNB-19 CNS and 41.9 µM with HCC-2998 colon.

`C#CCn1c(=O)c(C)cn(/C(=C\C(=O)OCC)C(=O)OCC)c1=O`: the TGI was 21.2 µM in the test with MDA-MB-435; 40.8 µM in the test with A498 renal; 39.2 µM in the test on A549 NSCLC; 13.2 µM with OVCAR-8 ovarian; 31 µM with SK-MEL-28 melanoma; > 56.4 µM in the test on SK-OV-3 ovarian. Besides, the TGI was determined as 11.9 µM in the test with MCF7 breast, 18.4 µM in the test on OVCAR-3 ovarian and 39.4 µM in the test on SNB-19 CNS. For the same molecule, in the test on SK-MEL-28 melanoma, the GI50 was 14.5 µM.

As for `O=C1CC(=O)n2cnc3cccc(c32)N1`, the TGI in the test on MDA-MB-435, in the test on A498 renal, with A549 NSCLC, in the test with OVCAR-8 ovarian, with SK-MEL-28 melanoma and in the test on SK-OV-3 ovarian was > 100 µM in each case. Moreover, the TGI with MCF7 breast, with OVCAR-3 ovarian and with SNB-19 CNS was > 100 µM throughout.

For the molecule `CN=C(/N=c1\ssc(=NC)n1C)N(C)C`, the TGI in the test with A498 renal, with A549 NSCLC, in the test on OVCAR-8 ovarian, with SK-MEL-28 melanoma, with SK-OV-3 ovarian and with OVCAR-3 ovarian was > 100 µM throughout. Further, the TGI in the test on SNB-19 CNS and in the test with HCC-2998 colon was > 100 µM throughout.

As for `COc1cc(C2c3cc4c(cc3C3OC[C@@H]2C3CO)OCO4)cc(OC)c1OC` (stereo partly specified), the TGI with MDA-MB-435 is 51.1 µM; in the test with A498 renal, > 100 µM; with A549 NSCLC, > 100 µM; in the test on OVCAR-8 ovarian, > 100 µM; in the test with SK-MEL-28 melanoma, > 100 µM; in the test on SK-OV-3 ovarian it was > 100 µM. The TGI was > 100 µM in the test with MCF7 breast, 97.9 µM in the test on OVCAR-3 ovarian and > 100 µM in the test on SNB-19 CNS. In the test on OVCAR-3 ovarian, the GI50 was 23.9 µM.
